Data: patent US7541353B2, “Compounds for the treatment of hepatitis C” (Bristol-Myers Squibb Company, priority 2007, dated 2009)
Read-outs that look alike come from different tables or passages of the source.

Experiments:
HCV NS5B = target: T1, HCV NS5B (Hepatitis C virus genotype 1b, UniProt Q9WMX2); assay: Modified HCV NS5B RdRp enzyme assay (preincubation protocol); type: biochemical
T1 construct: The cDNA encoding the NS5B protein of HCV, genotype 1b; made in house; host or cells: E. coli BL21(DE3)
T1 sequence (Q9WMX2 2420-2992): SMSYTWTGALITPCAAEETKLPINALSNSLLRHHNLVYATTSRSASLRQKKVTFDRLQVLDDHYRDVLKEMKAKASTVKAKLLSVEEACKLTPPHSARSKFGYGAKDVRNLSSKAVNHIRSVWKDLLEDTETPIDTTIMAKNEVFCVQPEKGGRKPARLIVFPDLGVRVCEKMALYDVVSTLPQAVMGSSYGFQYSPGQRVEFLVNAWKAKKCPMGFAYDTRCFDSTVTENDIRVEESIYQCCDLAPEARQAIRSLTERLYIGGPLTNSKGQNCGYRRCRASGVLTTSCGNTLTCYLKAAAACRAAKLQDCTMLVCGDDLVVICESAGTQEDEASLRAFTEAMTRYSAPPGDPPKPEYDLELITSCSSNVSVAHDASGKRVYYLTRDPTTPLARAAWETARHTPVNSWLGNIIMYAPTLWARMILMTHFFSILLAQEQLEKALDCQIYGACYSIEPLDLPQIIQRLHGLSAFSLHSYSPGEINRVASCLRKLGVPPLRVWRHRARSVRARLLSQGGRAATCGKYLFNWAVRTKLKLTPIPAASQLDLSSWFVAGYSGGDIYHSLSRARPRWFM
Procedure: HCV NS5B RdRp cloning, expression, and purification. The cDNA encoding the NS5B protein of HCV, genotype 1b, was cloned into the pET21a expression vector. The protein was expressed with an 18 amino acid C-terminal truncation to enhance the solubility. The E. coli competent cell line BL21(DE3) was used for expression of the protein. Cultures were grown at 37° C. for ˜4 hours until the cultures reached an optical density of 2.0 at 600 nm. The cultures were cooled to 20° C. and induced with 1 mM IPTG. Fresh ampicillin was added to a final concentration of 50 μg/ml and the cells were grown overnight at 20° C.
Cell pellets (3L) were lysed for purification to yield 15-24 mgs of purified NS5B. The lysis buffer consisted of 20 mM Tris-HCl, pH 7.4, 500 mM NaCl, 0.5% triton X-100, 1 mM DTT, 1 mM EDTA, 20% glycerol, 0.5 mg/ml lysozyme, 10 mM MgCl2, 15 ug/ml deoxyribonuclease I, and Complete™ protease inhibitor tablets (Roche). After addition of the lysis buffer, frozen cell pellets were resuspended using a tissue homogenizer. To reduce the viscosity of the sample, aliquots of the lysate were sonicated on ice using a microtip attached to a Branson sonicator. The sonicated lysate was centrifuged at 100,000×g for 1 hr at 4° C. and filtered through a 0.2 μm filter unit (Corning).
The protein was purified using two sequential chromatography steps: Heparin sepharose CL-6B and polyU sepharose 4B (Pharmacia). The chromatography buffers were identical to the lysis buffer but contained no lysozyme, deoxyribonuclease I, MgCl2 or protease inhibitor and the NaCl concentration of the buffer was adjusted according to the requirements for charging the protein onto the column. Each column was eluted with a NaCl gradient which varied in length from 5-50 column volumes depending on the column type. After the final chromatography step, the resulting purity of the enzyme is >90% based on SDS-PAGE analysis. The enzyme was aliquoted and stored at −80° C.
Standard HCV NS5B RdRp enzyme assay. HCV RdRp genotype 1b assays were run in a final volume of 60 μl in 96 well plates (Corning 3600). The assay buffer is composed of 20 mM Hepes, pH 7.5, 2.5 mM KCl, 2.5 mM MgCl2, 1 mM DTT, 1.6 U RNAse inhibitor (Promega N2515), 0.01 mg/ml BSA (Sigma B6917), and 2% glycerol. All compounds were serially diluted (3-fold) in DMSO and diluted further in water such that the final concentration of DMSO in the assay was 2%. HCV RdRp genotype 1b enzyme was used at a final concentration of 28 nM. A polyA template was used at 6 nM, and a biotinylated oligo-dT12 primer was used at 180 nM final concentration. Template was obtained commercially (Amersham 27-4110). Biotinylated primer was prepared by Sigma Genosys. 3H-UTP was used at 0.6 μCi (0.29 μM total UTP). Reactions were initiated by the addition of enzyme, incubated at 30° C. for 60 min, and stopped by adding 25 μl of 50 mM EDTA containing SPA beads (4 μg/μl, Amersham RPNQ 0007). Plates were read on a Packard Top Count NXT after >1 hr incubation at room temperature.
Modified HCV NS5B RdRp enzyme assay. A modified enzyme assay was performed essentially as described for the standard enzyme assay except for the following: The biotinylated oligo dT12 primer was precaptured on streptavidin-coated SPA beads by mixing primer and beads in assay buffer and incubating at room temperature for one hour. Unbound primer was removed after centrifugation. The primer-bound beads were resuspended in 20 mM Hepes buffer, pH 7.5 and used in the assay at final concentrations of 20 nM primer and 0.67 μg/μl beads. Order of addition in the assay: enzyme (1.75 nM) was added to diluted compound followed by the addition of a mixture of template (0.36 nM), 3H-UTP (0.6 μCi, 0.29 μM), and primer-bound beads, to initiate the reaction; concentrations given are final. Reactions were allowed to proceed for 4 hours at 30° C.
IC50 values for compounds were determined using seven different [I]. […]

HCV replicon cells = assay: HCV replicon FRET assay; type: cell-based
Procedure: FRET Assay Preparation. The HCV FRET screening assay was performed in 96-well cell culture plates. The FRET peptide (Anaspec, Inc.) (Taliani et al., Anal. Biochem. 1996, 240, 60-67) contains a fluorescence donor, EDANS, near one end of the peptide and an acceptor, DABCYL, near the other end. The fluorescence of the peptide is quenched by […] resonance energy transfer (RET) between the donor and the acceptor, but as the NS3 protease cleaves the peptide the products are released from RET quenching and the fluorescence of the donor becomes apparent. The assay reagent was made as follows: 5× cell Luciferase cell culture lysis reagent from Promega (#E153A) diluted to 1× with dH2O, NaCl added to 150 mM final, the FRET peptide diluted to 20 μM final from a 2 mM stock.
To prepare plates, HCV replicon cells, with or without a Renilla luciferase reporter gene, were trypsinized and plated in a 96-well plate with titrated test compounds added in columns 3 through 12; columns 1 and 2 contained a control compound (HCV control inhibitor), and the bottom row contained cells with DMSO only. The plates were then placed in a CO2 incubator at 37° C.
Assays. Subsequent to addition of the test compounds described above (FRET Assay Preparation), at various times the plate was removed and Alamar blue solution (Trek Diagnostics, #00-100) was added to measure cellular toxicity. After reading in a Cytoflour 4000 instrument (PE Biosystems), plates were rinsed with PBS and then used for FRET assay by the addition of 30 ul of the FRET peptide assay reagent described above (FRET Assay Preparation) per well. The plate was then placed into the Cytoflour 4000 instrument which had been set to 340 excite/490 emission, automatic mode for up to 20 cycles and the plate read in a kinetic mode. Typically, the signal to noise using an endpoint analysis after the reads was at least three-fold. Alternatively, after Alamar blue reading, plates were rinsed with PBS, then used for luciferase assay using the Promega Dual-Glo Luciferase Assay System or the Promega EnduRen Live Cell Substrate assay.
Compound analysis was performed by quantification of the relative HCV replicon inhibition and the relative cytotoxicity values. To calculate cytoxicity values, the average Alamar Blue fluorescence signals from the control wells were set as 100% non-toxic. The individual signals in each of the compound test wells were then divided by the average control signal and multiplied by 100% to determine […]. To calculate the HCV replicon inhibition values, an average background value was obtained from the two wells containing the highest amount of HCV control inhibitor at the end of the assay period. These numbers were similar to those obtained from naïve Huh-7 cells. The background numbers were then subtracted from the average signal obtained from the control wells and this number was used as 100% activity. The individual signals in each of the compound test wells were then divided by the averaged control values after background subtraction and multiplied by 100% to determine percent activity. EC50 values were calculated as the concentration which caused a 50% reduction in FRET or luciferase activity. The two numbers generated for the compound plate, percent cytoxicity and percent activity, were used to determine compounds of interest for further analysis.

[1] = preincubation protocol, read-out: IC50

SMILES	IC50 (HCV NS5B)	EC50 (HCV replicon cells; Hepatitis C virus)	also measured
COc1ccc2c(c1)C1CC1(C(=O)C1C3CCC1CC3)Cn1c-2c(C2CCCCC2)c2ccc(C(=O)NS(=O)(=O)N(C)C)cc21 (stereo not drawn)			IC50 (HCV NS5B; [1]): 4.58 to 500 nM; EC50 (HCV replicon cells; Hepatitis C virus, FRET assay, read-out: EC50): 4.58 to 500 nM
COc1ccc2c(c1)C1CC1(C(=O)N1C3CCC1CC(=O)C3)Cn1c-2c(C2CCCCC2)c2ccc(C(=O)NS(=O)(=O)N(C)C)cc21 (stereo not drawn)	4.58 to 500 nM	4.58 to 500 nM	
COc1ccc2c(c1)C1CC1(C(=O)N1CC3CCC(C1)O3)Cn1c-2c(C2CCCCC2)c2ccc(C(=O)NS(=O)(=O)N(C)C)cc21 (stereo not drawn)		4.58 to 500 nM	IC50 (HCV NS5B; [1]): 4.58 to 500 nM
COc1ccc2c(c1)C1CC1(C(=O)N1C3CCC1CC(N(CCN(C)C)Cc1ccccc1)C3)Cn1c-2c(C2CCCCC2)c2ccc(C(=O)NS(=O)(=O)C3CC3)cc21 (stereo not drawn)	4.58 to 500 nM	4.58 to 500 nM	
COc1ccc2c(c1)C1CC1(C(=O)N1C3CCC1CC(O)(C1CC1)C3)Cn1c-2c(C2CCCCC2)c2ccc(C(=O)NS(=O)(=O)N(C)C)cc21 (stereo not drawn)	4.58 to 500 nM	4.58 to 500 nM	
COc1ccc2c(c1)C1CC1(C(=O)N1C3CCC1CC(NC(C)C)C3)Cn1c-2c(C2CCCCC2)c2ccc(C(=O)NS(=O)(=O)N(C)C)cc21 (stereo not drawn)	4.58 to 500 nM	4.58 to 500 nM	
COc1ccc2c(c1)C1CC1(C(=O)N1C3CCC1CC(=O)C3)Cn1c-2c(C2CCCCC2)c2ccc(C(=O)NS(C)(=O)=O)cc21 (stereo not drawn)	4.58 to 500 nM	4.58 to 500 nM	
COc1ccc2c(c1)C1CC1(C(=O)N1C3CCC1CC(=O)C3)Cn1c-2c(C2CCCCC2)c2ccc(C(=O)NS(=O)(=O)C(C)C)cc21 (stereo not drawn)	4.58 to 500 nM	4.58 to 500 nM	
CCC(C)S(=O)(=O)NC(=O)c1ccc2c(C3CCCCC3)c3n(c2c1)CC1(C(=O)N2C4CCC2CC(N(C)Cc2ccccc2)C4)CC1c1cc(OC)ccc1-3 (stereo not drawn)	4.58 to 500 nM	4.58 to 500 nM	
COc1ccc2c(c1)C1CC1(C(=O)N1C3CCC1CC(NCc1ccccc1)C3)Cn1c-2c(C2CCCCC2)c2ccc(C(=O)NS(=O)(=O)C(C)C)cc21 (stereo not drawn)	4.58 to 500 nM	4.58 to 500 nM	
CCC(C)S(=O)(=O)NC(=O)c1ccc2c(C3CCCCC3)c3n(c2c1)CC1(C(=O)N2C4CCC2CC(NC)C4)CC1c1cc(OC)ccc1-3 (stereo not drawn)	4.58 to 500 nM	4.58 to 500 nM	
COc1ccc2c(c1)C=C(C(=O)N1C3CCCC1COC3)Cn1c-2c(C2CCCCC2)c2ccc(C(=O)NS(=O)(=O)C3CC3)cc21	4.58 to 500 nM	4.58 to 500 nM	
COc1ccc2c(c1)C1CC1(C(=O)N1C3CCC1CC(O)(C(F)(F)F)C3)Cn1c-2c(C2CCCCC2)c2ccc(C(=O)NS(=O)(=O)N(C)C)cc21 (stereo not drawn)	4.58 to 500 nM	4.58 to 500 nM	
COc1ccc2c(c1)[C@@H]1C[C@]1(C(=O)N1C3COCC1COC3)Cn1c-2c(C2CCCCC2)c2ccc(C(=O)NS(=O)(=O)N(C)C)cc21	4.58 to 500 nM	4.58 to 500 nM	
COc1ccc2c(c1)[C@@H]1C[C@]1(C(=O)N1C3CCC(O)C1CCC3O)Cn1c-2c(C2CCCCC2)c2ccc(C(=O)NS(=O)(=O)N(C)C)cc21 (stereo partly drawn)	4.58 to 500 nM	4.58 to 500 nM	
COc1ccc2c(c1)C1CC1(C(=O)N1C3COCC1COC3)Cn1c-2c(C2CCCCC2)c2ccc(C(=O)NS(=O)(=O)C(C)C)cc21 (stereo not drawn)	4.58 to 500 nM	4.58 to 500 nM	
CCC(C)S(=O)(=O)NC(=O)c1ccc2c(C3CCCCC3)c3n(c2c1)CC1(C(=O)N2C4CCC[C@@H]2COC4)CC1c1cc(OC)ccc1-3 (stereo partly drawn)	4.58 to 500 nM	4.58 to 500 nM	
COc1ccc2c(c1)C1CC1(C(=O)N1C3COCC1COC3)Cn1c-2c(C2CCCCC2)c2ccc(C(=O)NS(=O)(=O)CC(C)C)cc21 (stereo not drawn)	4.58 to 500 nM	4.58 to 500 nM	
COc1ccc2c(c1)C1CC1(C(=O)N1C3CCC[C@@H]1COC3)Cn1c-2c(C2CCCCC2)c2ccc(C(=O)NS(=O)(=O)CC(C)C)cc21 (stereo partly drawn)	4.58 to 500 nM	4.58 to 500 nM	
COc1ccc2c(c1)C1CC1(C(=O)N1C3CCC1CC(NCC1CC1)C3)Cn1c-2c(C2CCCCC2)c2ccc(C(=O)NS(=O)(=O)N(C)C)cc21 (stereo not drawn) [drawing 23]	4.58 to 500 nM	4.58 to 500 nM	
COc1ccc2c(c1)C1CC1(C(=O)N1C3CCC1CC(NCC1CC1)C3)Cn1c-2c(C2CCCCC2)c2ccc(C(=O)NS(=O)(=O)N(C)C)cc21 (stereo not drawn) [drawing 26]			IC50 (HCV NS5B; preincubation protocol): 4.58 to 500 nM; EC50 (HCV replicon cells; FRET assay): 4.58 to 500 nM
CNC1CC2CCC(C1)N2C(=O)C12CC1c1cc(OC)ccc1-c1c(C3CCCCC3)c3ccc(C(=O)NS(=O)(=O)N(C)C)cc3n1C2 (stereo not drawn) [drawing 28]	4.58 to 500 nM	4.58 to 500 nM	
CNC1CC2CCC(C1)N2C(=O)C12CC1c1cc(OC)ccc1-c1c(C3CCCCC3)c3ccc(C(=O)NS(=O)(=O)N(C)C)cc3n1C2 (stereo not drawn) [drawing 29]			IC50 (HCV NS5B; preincubation protocol): 4.58 to 500 nM; EC50 (HCV replicon cells; FRET assay): 4.58 to 500 nM
COc1ccc2c(c1)C1CC1(C(=O)N1C3CCC1CC(N(C)Cc1ccccc1)C3)Cn1c-2c(C2CCCCC2)c2ccc(C(=O)NS(=O)(=O)C(C)C)cc21 (stereo not drawn) [drawing 36]	4.58 to 500 nM	4.58 to 500 nM	
COc1ccc2c(c1)[C@@H]1C[C@]1(C(=O)N1C3CCC1CC(C)(O)C3)Cn1c-2c(C2CCCCC2)c2ccc(C(=O)NS(=O)(=O)N(C)C)cc21 (stereo partly drawn) [drawing 46]	4.58 to 500 nM	4.58 to 500 nM	
COc1ccc2c(c1)[C@@H]1C[C@]1(C(=O)N1C3CCC1CC(C)(O)C3)Cn1c-2c(C2CCCCC2)c2ccc(C(=O)NS(=O)(=O)N(C)C)cc21 (stereo partly drawn) [drawing 47]			IC50 (HCV NS5B; preincubation protocol): 4.58 to 500 nM; EC50 (HCV replicon cells; FRET assay): 4.58 to 500 nM
COc1ccc2c(c1)C1CC1(C(=O)N1C3CCCC1COC3)Cn1c-2c(C2CCCCC2)c2ccc(C(=O)NS(=O)(=O)C3CCCCC3)cc21 (stereo not drawn) [drawing 54]			IC50 (HCV NS5B; preincubation protocol): 4.58 to 500 nM; EC50 (HCV replicon cells; FRET assay): 4.58 to 500 nM
